What was measured:
[1] = target: T1, GzmB (Homo sapiens, UniProt P10144); experiment: Inhibition of fibronectin cleavage by GzmB; format: biochemical; conditions: 20 nM granzyme B; for inhibition at 0.62 µM: 0.62 uM inhibitor, read-out: Percent Inhibition at Inhibitor Concentration 0.62 uM; for inhibition at 5.56 µM: 5.56 uM inhibitor, read-out: Percent Inhibition at Inhibitor Concentration 5.56 uM; for inhibition at 50 µM: 50 uM inhibitor, read-out: Percent Inhibition at Inhibitor Concentration 50 uM
Experimental: Black, 96 well high-binding assay plates (Griener Bio-one) were treated overnight at 4° C. with 40 uL of 8 ug/mL Hilyte Fluor 488 labeled Fibronectin (Cytoskeleton, Inc). After fibronectin coating, plates were washed 3 times in buffer (20 mM Tris-HCl, pH 7.4, 20 mM NaCl) then once with granzyme B assay buffer (50 mM HEPES, pH 7.5, 0.1% CHAPS). After washing, 50 μL of granzyme B assay buffer was added to each fibronectin-coated well. In a separate non-binding 96 well assay plate 5 μL of 20× inhibitor serial dilution stocks were added to 45 μL of 2.22× GzmB mix to establish inhibition (enzyme/inhibitor mixes were all prepared in granzyme B assay buffer and were incubated first at room temperature for 20 minutes, then at 30° C. for another 10 minutes). After incubation, 50 μL of this 2× enzyme/inhibitor mix was added to the corresponding coated well to initiate fibronectin cleavage (20 nM final granzyme B concentration, 8-point inhibitor dilution series starting at 50 uM). The assay was conducted at 30° C. in the TECAN plate reader (TECAN INFINITE® M1000 Pro), which was programmed to monitor the kinetic fluorescence polarization signal (filter set Ex/Em 470 nm/527 nm) with readings taken every minute, for 1 hour. Proteolytic activity was evaluated as the rate of fluorescence enhancement in the parallel emission over the linear range of the reaction. % Inhibition values were calculated from assay controls and the resulting date is shown in Table 7.

[2] = target: T1, GzmB; experiment: Inhibition of cell detachment by GzmB assay (HDFa fibroblasts, MTS); format: cell-based; conditions: 50 uM inhibitor, 100 nM GzmB, HDFa primary human fibroblasts, 7 hours; read-out: Percent Inhibition of cell detachment at 50uM
Experimental: HDFa primary human fibroblasts were plated at 10 k/well in 200 ul, approximately 20 hrs before treatment. The next day, controls and 100 nM GzmB (recombinant, human) plus or minus inhibitor treatments were prepared in serum-free media. GzmB and inhibitor were incubated for 20 minutes at RT before adding to cells. Before addition, media and serum was removed from the cells and the cells were washed with PBS (1×), using pipettes to prevent disturbing the cells. Treatment preparations (100 ul) were added to the wells and incubated for 7 hours in a tissue culture incubator. After 7 hours, media and treatments were removed and the cells were washed with PBS (1×) to removed detached cells, using pipettes only. Phase pictures were taken then the PBS was removed and replaced with 100 uL of serum-free media and 20 uL of MTS and the cells were allowed to incubate for 3 hours in a cell culture incubator. After 3 hours the absorbance was read at 490 nm and a percent inhibition value for the treatments with inhibitors was determined from the control wells.

T1 sequence (P10144 21-247): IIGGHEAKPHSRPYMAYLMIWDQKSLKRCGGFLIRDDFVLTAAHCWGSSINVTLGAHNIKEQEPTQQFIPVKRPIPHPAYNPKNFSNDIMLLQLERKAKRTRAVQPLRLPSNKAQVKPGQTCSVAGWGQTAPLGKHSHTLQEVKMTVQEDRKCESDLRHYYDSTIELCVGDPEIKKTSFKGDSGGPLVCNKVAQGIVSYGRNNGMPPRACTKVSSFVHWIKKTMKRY

## CC[C@H](C)[C@H](NC(=O)Cc1ccccc1)C(=O)N[C@@H](CCC(=O)O)C(=O)N1c2ncccc2C[C@H]1C(=O)NCc1nn[nH]n1 [Example C9, (S)-5-((S)-2-(((2H-tetrazol-5-yl)methyl)carbamoyl)-2,3-dihydro-1H-pyrrolo[2,3-B]pyridin-1-yl)-4-((2S,3S)-3-methyl-2-(2-phenylacetamido)pentanamido)-5-oxopentanoic acid]
[1]
  inhibition at 0.62 µM: 58%
  inhibition at 5.56 µM: 81%
  inhibition at 50 µM: 91%

## CC(C)[C@H](NC(=O)CCC(=O)O)C(=O)N[C@@H](CCC(=O)O)C(=O)N1c2ncccc2C[C@H]1C(=O)NCc1nn[nH]n1 [Example C17, (S)-5-((S)-2-(((2H-tetrazol-5-yl)methyl)carbamoyl)-2,3-dihydro-1H-pyrrolo[2,3-B]pyridin-1-yl)-4-((S)-2-(3-carboxypropanamido)-3-methylbutanamido)-5-oxopentanoic acid]
[1]
  inhibition at 0.62 µM: 56%
  inhibition at 5.56 µM: 77%
  inhibition at 50 µM: 94%

## CC[C@H](C)[C@H](NC(=O)Cc1nn[nH]n1)C(=O)NCC(=O)N1c2ncccc2C[C@H]1C(=O)NCc1nn[nH]n1 [Example A1, (S)-1-(2-((2S,3S)-2-(2-(2H-tetrazol-5-yl)acetamido)-3-methylpentanamido)acetyl)-N-((2H-tetrazol-5-yl)methyl)-2,3-dihydro-1H-pyrrolo[2,3-B]pyridine-2-carboxamide]
[1]
  inhibition at 0.62 µM: 66%
  inhibition at 5.56 µM: 82%
  inhibition at 50 µM: 88%

## CC[C@H](C)[C@H](NC(=O)CCC(=O)O)C(=O)N[C@@H](CCC(=O)O)C(=O)N1c2ncccc2C[C@H]1C(=O)NCc1nn[nH]n1 [Example C4, (S)-5-((S)-2(((2H-tetrazol-5-yl)methyl)carbamoyl)-2,3-dihydro-1H-pyrrolo[2,3-B]pyridin-1-yl)-4-((2S,3S)-2-(3-carboxypropanamido)-3-methylpentanamido)-5-oxopentanoic acid]
[2]
  inhibition at 50 µM: 100%
[1]
  inhibition at 0.62 µM: 45%
  inhibition at 5.56 µM: 79%
  inhibition at 50 µM: 98%
